{"source": "patent US6355799B1", "about": "“Substituted benzene compounds, process for their preparation, and herbicidal and defoliant compositions containing them” (ISK Americas Incorporated, priority 1997, dated 2002)", "type_in_all_cases": "in vivo", "key": {"[1]": {"tested_on": "velvetleaf (Abutilon theophrasti, ABUTH)", "test": "Pre-emerge test, greenhouse herbicide activity screening", "conditions": "rated 14 days after application, 0 = no damage, 100 = complete death", "summary_of_the_method": "(§1)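 Sandy loam pots; pre-emerge: sown 1 d pre-spray, surface-watered after, then bottom-watered. Post-emerge: sown 8–21 d before, 2–3 leaf stage, + 0.25% v/v NIS, bottom-watered. Acetone, 187 l/ha track spray, 15–1000 g ai/ha. 0–100 injury score, day 14.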"}, "[2]": {"tested_on": "johnsongrass (Sorghum halepense, SORHA)", "test": "Pre-emerge test, greenhouse herbicide activity screening", "conditions": "rated 14 days after application, 0 = no damage, 100 = complete death", "summary_of_the_method": "as §1"}, "[3]": {"tested_on": "green foxtail (Setaria viridis, SETVI)", "test": "Pre-emerge test, greenhouse herbicide activity screening", "conditions": "rated 14 days after application, 0 = no damage, 100 = complete death", "summary_of_the_method": "as §1"}, "[4]": {"tested_on": "barnyardgrass (Echinochloa crus-galli, ECHCG)", "test": "Pre-emerge test, greenhouse herbicide activity screening", "conditions": "rated 14 days after application, 0 = no damage, 100 = complete death", "summary_of_the_method": "as §1"}, "[5]": {"tested_on": "ivyleaf morningglory (Ipomoea hederacea, IPOHE)", "test": "Pre-emerge test, greenhouse herbicide activity screening", "conditions": "rated 14 days after application, 0 = no damage, 100 = complete death", "summary_of_the_method": "as §1"}, "[6]": {"tested_on": "lambsquarters (Chenopodium album, CHEAL)", "test": "Pre-emerge test, greenhouse herbicide activity screening", "conditions": "rated 14 days after application, 0 = no damage, 100 = complete death", "summary_of_the_method": "as §1"}, "[7]": {"tested_on": "large crabgrass (Digitaria sanguinalis, DIGSA)", "test": "Pre-emerge test, greenhouse herbicide activity screening", "conditions": "rated 14 days after application, 0 = no damage, 100 = complete death", "summary_of_the_method": "as §1"}, "[8]": {"tested_on": "sicklepod (Cassia obtusifolia, CASOB)", "test": "Pre-emerge test, greenhouse herbicide activity screening", "conditions": "rated 14 days after application, 0 = no damage, 100 = complete death", "summary_of_the_method": "as §1"}, "[9]": {"tested_on": "velvetleaf (Abutilon theophrasti, ABUTH)", "test": "Post-emerge test, greenhouse herbicide activity screening", "conditions": "post-emerge, 14 days after application, rating scale 0-100", "summary_of_the_method": "(§2)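 Fourteen days after spraying, crop and weed injury was graded visually from 0, no effect, to 100, every plant dead. Test substances were dissolved in acetone and applied at 15–1000 g ai/ha with a flat-fan nozzle. Application was either pre-emergence, one day after sowing, or post-emergence at the 2–3 leaf stage.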"}, "[10]": {"tested_on": "johnsongrass (Sorghum halepense, SORHA)", "test": "Post-emerge test, greenhouse herbicide activity screening", "conditions": "post-emerge, 14 days after application, rating scale 0-100", "summary_of_the_method": "as §2"}, "[11]": {"tested_on": "green foxtail (Setaria viridis, SETVI)", "test": "Post-emerge test, greenhouse herbicide activity screening", "conditions": "post-emerge, 14 days after application, rating scale 0-100", "summary_of_the_method": "as §2"}, "[12]": {"tested_on": "barnyardgrass (Echinochloa crus-galli, ECHCG)", "test": "Post-emerge test, greenhouse herbicide activity screening", "conditions": "post-emerge, 14 days after application, rating scale 0-100", "summary_of_the_method": "as §2"}, "[13]": {"tested_on": "ivyleaf morningglory (Ipomoea hederacea, IPOHE)", "test": "Post-emerge test, greenhouse herbicide activity screening", "conditions": "post-emerge, 14 days after application, rating scale 0-100", "summary_of_the_method": "as §2"}, "[14]": {"tested_on": "common ragweed (Ambrosia artemisizfolia L., AMBEL)", "test": "Post-emerge test, greenhouse herbicide activity screening", "conditions": "post-emerge, 14 days after application, rating scale 0-100", "summary_of_the_method": "as §2"}, "[15]": {"tested_on": "lambsquarters (Chenopodium album, CHEAL)", "test": "Post-emerge test, greenhouse herbicide activity screening", "conditions": "post-emerge, 14 days after application, rating scale 0-100", "summary_of_the_method": "as §2"}, "[16]": {"tested_on": "large crabgrass (Digitaria sanguinalis, DIGSA)", "test": "Post-emerge test, greenhouse herbicide activity screening", "conditions": "post-emerge, 14 days after application, rating scale 0-100", "summary_of_the_method": "as §2"}, "[17]": {"tested_on": "sicklepod (Cassia obtusifolia, CASOB)", "test": "Post-emerge test, greenhouse herbicide activity screening", "conditions": "post-emerge, 14 days after application, rating scale 0-100", "summary_of_the_method": "as §2"}, "[18]": {"tested_on": "redroot pigweed (Amaranthus retroflexus, AMARE)", "test": "Post-emerge test, greenhouse herbicide activity screening", "conditions": "post-emerge, 14 days after application, rating scale 0-100", "summary_of_the_method": "as §2"}, "[19]": {"tested_on": "redroot pigweed (Amaranthus retroflexus, AMARE)", "test": "Pre-emerge test, greenhouse herbicide activity screening", "conditions": "rated 14 days after application, 0 = no damage, 100 = complete death", "summary_of_the_method": "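Herbicidal damage is scored 0 (none) to 100 (complete plant death) two weeks after a simulated field spray. Rates span 15–1000 g ai/ha, delivered in acetone at 187 l/ha. For post-emergence treatments, plants have 2–3 leaves and the spray carries 0.25% v/v non-ionic surfactant.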"}, "[20]": {"tested_on": "field corn (Zea mays L., var. Dekalb 535, CORN)", "test": "Pre-emerge test, crop safety", "conditions": "rated 14 days after application, 0 = no damage, 100 = complete death", "summary_of_the_method": "as §1"}, "[21]": {"tested_on": "upland rice (Oryza sp., var. Tebonnet, RICE)", "test": "Pre-emerge test, crop safety", "conditions": "rated 14 days after application, 0 = no damage, 100 = complete death", "summary_of_the_method": "as §1"}, "[22]": {"tested_on": "field corn (Zea mays L., var. Dekalb 535, CORN)", "test": "Post-emerge test, crop safety", "conditions": "post-emerge, 14 days after application, rating scale 0-100", "summary_of_the_method": "as §1"}, "[23]": {"tested_on": "upland rice (Oryza sp., var. Tebonnet, RICE)", "test": "Post-emerge test, crop safety", "conditions": "post-emerge, 14 days after application, rating scale 0-100", "summary_of_the_method": "as §1"}}, "data": [{"smiles": "COc1c(Cl)cc(F)c(-n2c(=O)cc(C(F)(F)F)n(C)c2=O)c1NC(=O)c1ccc(C(F)(F)F)cc1", "note": "[2-33]", "values": [{"measurement": "Pre-emerge Herbicidal Activity, phytotoxicity rating (0-100), ABUTH", "setting": "[1]; 63 g ai/ha", "result": 100}, {"measurement": "Pre-emerge Herbicidal Activity, phytotoxicity rating (0-100), ABUTH", "setting": "[1]; 250 g ai/ha", "result": 100}, {"measurement": "Pre-emerge Herbicidal Activity, phytotoxicity rating (0-100), SORHA", "setting": "[2]; 63 g ai/ha", "result": 60}, {"measurement": "Pre-emerge Herbicidal Activity, phytotoxicity rating (0-100), SORHA", "setting": "[2]; 250 g ai/ha", "result": 90}, {"measurement": "Pre-emerge Herbicidal Activity, phytotoxicity rating (0-100), SETVI", "setting": "[3]; 63 g ai/ha", "result": 100}, {"measurement": "Pre-emerge Herbicidal Activity, phytotoxicity rating (0-100), SETVI", "setting": "[3]; 250 g ai/ha", "result": 100}, {"measurement": "Pre-emerge Herbicidal Activity, phytotoxicity rating (0-100), ECHCG", "setting": "[4]; 63 g ai/ha", "result": 30}, {"measurement": "Pre-emerge Herbicidal Activity, phytotoxicity rating (0-100), ECHCG", "setting": "[4]; 250 g ai/ha", "result": 95}, {"measurement": "Pre-emerge Herbicidal Activity, phytotoxicity rating (0-100), IPOHE", "setting": "[5]; 63 g ai/ha", "result": 100}, {"measurement": "Pre-emerge Herbicidal Activity, phytotoxicity rating (0-100), IPOHE", "setting": "[5]; 250 g ai/ha", "result": 100}, {"measurement": "Pre-emerge Herbicidal Activity, phytotoxicity rating (0-100), CHEAL", "setting": "[6]; 63 g ai/ha", "result": 100}, {"measurement": "Pre-emerge Herbicidal Activity, phytotoxicity rating (0-100), CHEAL", "setting": "[6]; 250 g ai/ha", "result": 100}, {"measurement": "Pre-emerge Herbicidal Activity, phytotoxicity rating (0-100), DIGSA", "setting": "[7]; 63 g ai/ha", "result": 100}, {"measurement": "Pre-emerge Herbicidal Activity, phytotoxicity rating (0-100), DIGSA", "setting": "[7]; 250 g ai/ha", "result": 100}, {"measurement": "Pre-emerge Herbicidal Activity, phytotoxicity rating (0-100), CASOB", "setting": "[8]; 63 g ai/ha", "result": 100}, {"measurement": "Pre-emerge Herbicidal Activity, phytotoxicity rating (0-100), CASOB", "setting": "[8]; 250 g ai/ha", "result": 100}, {"measurement": "phytotoxicity rating ABUTH", "setting": "[9]; 63 g ai/ha", "result": 100}, {"measurement": "phytotoxicity rating ABUTH", "setting": "[9]; 250 g ai/ha", "result": 100}, {"measurement": "phytotoxicity rating SORHA", "setting": "[10]; 63 g ai/ha", "result": 0}, {"measurement": "phytotoxicity rating SORHA", "setting": "[10]; 250 g ai/ha", "result": 20}, {"measurement": "phytotoxicity rating SETVI", "setting": "[11]; 63 g ai/ha", "result": 50}, {"measurement": "phytotoxicity rating SETVI", "setting": "[11]; 250 g ai/ha", "result": 40}, {"measurement": "phytotoxicity rating ECHCG", "setting": "[12]; 63 g ai/ha", "result": 10}, {"measurement": "phytotoxicity rating ECHCG", "setting": "[12]; 250 g ai/ha", "result": 60}, {"measurement": "phytotoxicity rating IPOHE", "setting": "[13]; 63 g ai/ha", "result": 100}, {"measurement": "phytotoxicity rating IPOHE", "setting": "[13]; 250 g ai/ha", "result": 100}, {"measurement": "phytotoxicity rating AMBEL", "setting": "[14]; 63 g ai/ha", "result": 70}, {"measurement": "phytotoxicity rating AMBEL", "setting": "[14]; 250 g ai/ha", "result": 95}, {"measurement": "phytotoxicity rating CHEAL", "setting": "[15]; 63 g ai/ha", "result": 80}, {"measurement": "phytotoxicity rating CHEAL", "setting": "[15]; 250 g ai/ha", "result": 95}, {"measurement": "phytotoxicity rating DIGSA", "setting": "[16]; 63 g ai/ha", "result": 0}, {"measurement": "phytotoxicity rating DIGSA", "setting": "[16]; 250 g ai/ha", "result": 40}, {"measurement": "phytotoxicity rating CASOB", "setting": "[17]; 63 g ai/ha", "result": 70}, {"measurement": "phytotoxicity rating CASOB", "setting": "[17]; 250 g ai/ha", "result": 80}, {"measurement": "phytotoxicity rating AMARE", "setting": "[18]; 63 g ai/ha", "result": 90}, {"measurement": "phytotoxicity rating AMARE", "setting": "[18]; 250 g ai/ha", "result": 95}, {"measurement": "Pre-emerge Herbicidal Activity, phytotoxicity rating (0-100), AMARE", "setting": "[19]; 63 g ai/ha", "result": 100}, {"measurement": "Pre-emerge Herbicidal Activity, phytotoxicity rating (0-100), AMARE", "setting": "[19]; 250 g ai/ha", "result": 100}, {"measurement": "Pre-emerge phytotoxicity rating (0-100), crop damage, CORN", "setting": "[20]; 63 g ai/ha", "result": 70}, {"measurement": "Pre-emerge phytotoxicity rating (0-100), crop damage, CORN", "setting": "[20]; 250 g ai/ha", "result": 90}, {"measurement": "Pre-emerge phytotoxicity rating (0-100), crop damage, RICE", "setting": "[21]; 63 g ai/ha", "result": 70}, {"measurement": "Pre-emerge phytotoxicity rating (0-100), crop damage, RICE", "setting": "[21]; 250 g ai/ha", "result": 80}, {"measurement": "phytotoxicity rating CORN", "setting": "[22]; 63 g ai/ha", "result": 10}, {"measurement": "phytotoxicity rating CORN", "setting": "[22]; 250 g ai/ha", "result": 40}, {"measurement": "phytotoxicity rating RICE", "setting": "[23]; 63 g ai/ha", "result": 20}, {"measurement": "phytotoxicity rating RICE", "setting": "[23]; 250 g ai/ha", "result": 60}]}]}
